Laboratory results from PubChem BioAssay (NCI).
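96-well plates; 48 h exposure; 5 concentrations. Endpoints by linear interpolation between flanking doses. Not reached: highest tested concentration assigned. GI50 = concentration required for 50% inhibition of growth. The concentration for full growth arrest is given as TGI.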

Legend:
Assay in all cases: NCI tumour cell line growth inhibition, 48 h; in the data active = GI50 below about 0.43 µM; inactive = the rest
MDA-MB-435 = system: MDA-MB-435
UACC-257 melanoma = system: UACC-257 melanoma
UACC-62 melanoma = system: UACC-62 melanoma
SK-MEL-28 melanoma = system: SK-MEL-28 melanoma
KM12 colon = system: KM12 colon
RPMI-8226 leukemia = system: RPMI-8226 leukemia
HCT-116 colon = system: HCT-116 colon
HT29 colon = system: HT29 colon
SF-268 CNS = system: SF-268 CNS
SK-MEL-2 melanoma = system: SK-MEL-2 melanoma
SF-295 CNS = system: SF-295 CNS
SR leukemia = system: SR leukemia
NCI-H522 lung = system: NCI-H522 lung
T-47D breast = system: T-47D breast
K-562 leukemia = system: K-562 leukemia
OVCAR-3 ovarian = system: OVCAR-3 ovarian
COLO 205 colon = system: COLO 205 colon
MDA-N = system: MDA-N
HL-60(TB) leukemia = system: HL-60(TB) leukemia
MOLT-4 leukemia = system: MOLT-4 leukemia
MCF7 breast = system: MCF7 breast
SK-MEL-5 melanoma = system: SK-MEL-5 melanoma
HCT-15 colon = system: HCT-15 colon
DU-145 prostate = system: DU-145 prostate
HS 578T breast = system: HS 578T breast
SW-620 colon = system: SW-620 colon
SK-OV-3 ovarian = system: SK-OV-3 ovarian
IGROV1 ovarian = system: IGROV1 ovarian
NCI-H226 lung = system: NCI-H226 lung
CAKI-1 renal = system: CAKI-1 renal
OVCAR-5 ovarian = system: OVCAR-5 ovarian
SNB-19 CNS = system: SNB-19 CNS
NCI/ADR-RES ovarian = system: NCI/ADR-RES ovarian
OVCAR-8 ovarian = system: OVCAR-8 ovarian
786-0 renal = system: 786-0 renal
SN12C renal = system: SN12C renal
UO-31 renal = system: UO-31 renal
HCC-2998 colon = system: HCC-2998 colon
MDA-MB-231 breast = system: MDA-MB-231 breast
TK-10 renal = system: TK-10 renal
PC-3 prostate = system: PC-3 prostate
A549 NSCLC = system: A549 NSCLC
SNB-75 CNS = system: SNB-75 CNS
OVCAR-4 ovarian = system: OVCAR-4 ovarian
M14 melanoma = system: M14 melanoma
NCI-H460 lung = system: NCI-H460 lung
ACHN renal = system: ACHN renal
SF-539 CNS = system: SF-539 CNS
U251 CNS = system: U251 CNS
HOP-62 NSCLC = system: HOP-62 NSCLC
EKVX NSCLC = system: EKVX NSCLC
CCRF-CEM leukemia = system: CCRF-CEM leukemia
RXF 393 renal = system: RXF 393 renal
HOP-92 NSCLC = system: HOP-92 NSCLC
LOX IMVI melanoma = system: LOX IMVI melanoma
A498 renal = system: A498 renal
MALME-3M melanoma = system: MALME-3M melanoma
BT-549 breast = system: BT-549 breast
NCI-H23 lung = system: NCI-H23 lung

O=C1C2=C(Nc3cc([N+](=O)[O-])ccc3N2)OC1c1ccc(C2OC3=C(Nc4ccc([N+](=O)[O-])cc4N3)C2=O)cc1 (centres undefined)
active: GI50 (HL-60(TB) leukemia) 0.184 µM
96.8 µM: TGI (UACC-257 melanoma)
53.4 µM: TGI (MDA-MB-435)
inactive: GI50 (MDA-MB-435) 22.1 µM | GI50 (UACC-257 melanoma) 28 µM | GI50 (UACC-62 melanoma) 30.4 µM | GI50 (SK-MEL-28 melanoma) 41.8 µM | GI50 (KM12 colon) 26.1 µM | GI50 (RPMI-8226 leukemia) 53.6 µM | GI50 (HCT-116 colon) 79.9 µM | GI50 (HT29 colon) 98.9 µM | GI50 (SF-268 CNS) 64.9 µM | GI50 (SK-MEL-2 melanoma) 63.3 µM | GI50 (SF-295 CNS) 23.3 µM | GI50 (SR leukemia) 19.4 µM | GI50 (NCI-H522 lung) 6.12 µM | GI50 (T-47D breast) 48 µM | GI50 (K-562 leukemia) 19.1 µM | GI50 (OVCAR-3 ovarian) 37.5 µM | GI50 (COLO 205 colon) 19.7 µM | GI50 (MDA-N) 42.8 µM | GI50 (MOLT-4 leukemia) 22 µM | GI50 (MCF7 breast) 53.3 µM | GI50 (SK-MEL-5 melanoma) 38.9 µM
77.3 µM: TGI (SF-295 CNS)
1.09 µM: TGI (HL-60(TB) leukemia)
45.1 µM: TGI (COLO 205 colon)

COc1ccc(C(=O)/C=C/c2ccc(OCCCCCCCCCCOc3ccc(/C=C/C(=O)c4ccc(OC)c(OC)c4)cc3)cc2)c(OC)c1
> 100 µM: TGI (MDA-MB-435) | TGI (UACC-257 melanoma) | TGI (HCT-15 colon) | TGI (UACC-62 melanoma) | TGI (DU-145 prostate) | TGI (SK-MEL-28 melanoma) | TGI (KM12 colon) | TGI (HS 578T breast) | TGI (RPMI-8226 leukemia) | TGI (SW-620 colon) | TGI (HCT-116 colon) | TGI (SK-OV-3 ovarian) | TGI (IGROV1 ovarian) | TGI (NCI-H226 lung) | TGI (CAKI-1 renal) | TGI (OVCAR-5 ovarian) | TGI (SNB-19 CNS) | TGI (NCI/ADR-RES ovarian) | TGI (OVCAR-8 ovarian) | TGI (786-0 renal) | TGI (HT29 colon) | TGI (SF-268 CNS) | TGI (SK-MEL-2 melanoma) | TGI (SF-295 CNS) | TGI (SN12C renal) | TGI (UO-31 renal) | TGI (HCC-2998 colon) | TGI (MDA-MB-231 breast) | TGI (TK-10 renal) | TGI (PC-3 prostate) | TGI (SR leukemia) | TGI (A549 NSCLC) | TGI (SNB-75 CNS) | TGI (OVCAR-4 ovarian) | TGI (M14 melanoma) | TGI (NCI-H460 lung) | TGI (T-47D breast) | TGI (K-562 leukemia) | TGI (COLO 205 colon) | TGI (MDA-N) | TGI (ACHN renal) | TGI (HL-60(TB) leukemia) | TGI (SF-539 CNS) | TGI (U251 CNS) | TGI (HOP-62 NSCLC) | TGI (EKVX NSCLC) | TGI (MOLT-4 leukemia) | TGI (CCRF-CEM leukemia) | TGI (MCF7 breast) | TGI (SK-MEL-5 melanoma) | TGI (RXF 393 renal)

COc1ccc(-c2nn(-c3cccc(Cl)c3)cc2/C=C2\C(=N)N(c3ccccc3)N=C2N)cc1
21.2 µM: TGI (MDA-MB-435)
20.7 µM: TGI (SW-620 colon)
15.1 µM: TGI (SR leukemia)
2.83 µM: TGI (SF-295 CNS)
46.2 µM: TGI (RPMI-8226 leukemia)
26 µM: TGI (HCT-15 colon)
> 81.4 µM: TGI (HOP-92 NSCLC)
43.5 µM: TGI (NCI-H23 lung)
> 78.8 µM: TGI (A498 renal)
46.1 µM: TGI (MALME-3M melanoma)
> 66.8 µM: TGI (NCI-H226 lung)
33.6 µM: TGI (UACC-257 melanoma)
> 100 µM: TGI (SK-MEL-28 melanoma) | TGI (HS 578T breast) | TGI (SK-OV-3 ovarian) | TGI (SNB-19 CNS) | TGI (OVCAR-8 ovarian) | TGI (SF-268 CNS) | TGI (SN12C renal) | TGI (T-47D breast)
23 µM: TGI (NCI-H522 lung)
60.5 µM: TGI (EKVX NSCLC)
32.6 µM: TGI (K-562 leukemia)
> 47.9 µM: TGI (DU-145 prostate)
> 95.8 µM: TGI (TK-10 renal)
7.73 µM: TGI (SK-MEL-5 melanoma)
24.5 µM: TGI (HT29 colon)
17.2 µM: TGI (HCT-116 colon)
1.79 µM: TGI (KM12 colon)
29.9 µM: TGI (786-0 renal)
35.2 µM: TGI (U251 CNS)
> 48.9 µM: TGI (NCI/ADR-RES ovarian)
0.844 µM: TGI (CAKI-1 renal)
4.58 µM: TGI (LOX IMVI melanoma)
> 84.8 µM: TGI (IGROV1 ovarian)
28.7 µM: TGI (MDA-MB-231 breast)
> 80.6 µM: TGI (HOP-62 NSCLC) | TGI (RXF 393 renal)
> 58.7 µM: TGI (CCRF-CEM leukemia)
3.75 µM: TGI (UACC-62 melanoma)
20.4 µM: TGI (OVCAR-3 ovarian)
active: GI50 (UACC-62 melanoma) 0.331 µM | GI50 (KM12 colon) 0.2 µM | GI50 (SW-620 colon) 0.399 µM | GI50 (LOX IMVI melanoma) 0.337 µM | GI50 (CAKI-1 renal) 0.229 µM | GI50 (SF-295 CNS) 0.271 µM | GI50 (M14 melanoma) 0.331 µM | GI50 (K-562 leukemia) 0.352 µM | GI50 (HL-60(TB) leukemia) 0.414 µM
> 65.9 µM: TGI (OVCAR-5 ovarian)
25.8 µM: TGI (UO-31 renal)
inactive: GI50 (MDA-MB-435) 0.495 µM | GI50 (UACC-257 melanoma) 2.14 µM | GI50 (HCT-15 colon) 0.489 µM | GI50 (DU-145 prostate) 1.37 µM | GI50 (SK-MEL-28 melanoma) 6.59 µM | GI50 (HS 578T breast) 19.6 µM | GI50 (RPMI-8226 leukemia) 0.993 µM | GI50 (HCT-116 colon) 1.59 µM | GI50 (SK-OV-3 ovarian) 34.7 µM | GI50 (HOP-92 NSCLC) 22.4 µM | GI50 (IGROV1 ovarian) 2.1 µM | GI50 (NCI-H226 lung) 6.58 µM | GI50 (OVCAR-5 ovarian) 2.08 µM | GI50 (SNB-19 CNS) 8.58 µM | GI50 (A498 renal) 11.2 µM | GI50 (NCI/ADR-RES ovarian) 1.32 µM | GI50 (OVCAR-8 ovarian) 1.12 µM | GI50 (786-0 renal) 1.35 µM | GI50 (HT29 colon) 2.57 µM | GI50 (SF-268 CNS) 4.52 µM | GI50 (SK-MEL-2 melanoma) 1.66 µM | GI50 (MALME-3M melanoma) 4.9 µM | GI50 (SN12C renal) 3.33 µM | GI50 (UO-31 renal) 0.587 µM | GI50 (HCC-2998 colon) 0.627 µM | GI50 (BT-549 breast) 5.75 µM | GI50 (MDA-MB-231 breast) 1.25 µM | GI50 (TK-10 renal) 7.77 µM | GI50 (PC-3 prostate) 0.601 µM | GI50 (SR leukemia) 1.04 µM | GI50 (A549 NSCLC) 0.54 µM | GI50 (SNB-75 CNS) 18.8 µM | GI50 (OVCAR-4 ovarian) 2.13 µM | GI50 (NCI-H460 lung) 0.445 µM | GI50 (NCI-H522 lung) 0.916 µM | GI50 (T-47D breast) 1.81 µM | GI50 (OVCAR-3 ovarian) 3.09 µM | GI50 (COLO 205 colon) 1.83 µM | GI50 (ACHN renal) 0.95 µM | GI50 (SF-539 CNS) 0.617 µM | GI50 (U251 CNS) 3 µM | GI50 (HOP-62 NSCLC) 16 µM | GI50 (EKVX NSCLC) 1.5 µM | GI50 (MOLT-4 leukemia) 0.511 µM | GI50 (NCI-H23 lung) 4.62 µM | GI50 (CCRF-CEM leukemia) 0.655 µM | GI50 (MCF7 breast) 2.2 µM | GI50 (SK-MEL-5 melanoma) 2.16 µM | GI50 (RXF 393 renal) 17.5 µM
3.52 µM: TGI (SF-539 CNS)
42.6 µM: TGI (ACHN renal)
5.42 µM: TGI (M14 melanoma)
22.3 µM: TGI (MOLT-4 leukemia)
> 59 µM: TGI (PC-3 prostate)
> 89.1 µM: TGI (OVCAR-4 ovarian)
33.5 µM: TGI (MCF7 breast)
9.24 µM: TGI (HL-60(TB) leukemia)
12.6 µM: TGI (SK-MEL-2 melanoma)
4.42 µM: TGI (HCC-2998 colon)
> 82.2 µM: TGI (A549 NSCLC)
98.6 µM: TGI (SNB-75 CNS)
7.4 µM: TGI (NCI-H460 lung)
3.92 µM: TGI (COLO 205 colon)
39.2 µM: TGI (BT-549 breast)
